In this test the test system is 276233-004-R-J1-PDC complex spheroid viability. Briefly: Anticancer human tumor 276233-004-R-J1-PDC patient-derived colon adenocarcinoma cell line growth inhibition [GQUAD]. As to conditions: for viability, T/C: stronger effect = lower value. The gist of the method: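 Viability of tumor cells grown as complex spheroids with endothelial and stromal cells, exposed to drug combinations. Top concentration at or near clinical Cmax (else 10 microM), diluted in half-log increments.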

The mark [1] stands for this setting: curve of first compound, second compound 0.0316 µM.
[2] abbreviates: curve of first compound, second compound 0.1 µM.
[3] abbreviates: curve of first compound, second compound 0.316 µM.
[4] abbreviates: curve of first compound, second compound 1 µM.
Where [5] appears, read: curve of first compound, second compound 3.16 µM.
Setting [6] is: curve of first compound, second compound 10 µM.
[7] abbreviates: second compound 0.0316 µM, first compound 0.0316 µM.
Where [8] appears, read: second compound 0.0316 µM, first compound 0.1 µM.
Where [9] appears, read: second compound 0.0316 µM, first compound 0.316 µM.
Setting [10] is: second compound 0.0316 µM, first compound 1 µM.
Setting [11] is: second compound 0.0316 µM, first compound 3.16 µM.
The mark [12] stands for this setting: second compound 0.0316 µM, first compound 10 µM.
Where [13] appears, read: second compound 0.1 µM, first compound 0.0316 µM.
Where [14] appears, read: second compound 0.1 µM, first compound 0.1 µM.
[15] abbreviates: second compound 0.1 µM, first compound 0.316 µM.
Where [16] appears, read: second compound 0.1 µM, first compound 1 µM.
Where [17] appears, read: second compound 0.1 µM, first compound 3.16 µM.
The mark [18] stands for this setting: second compound 0.1 µM, first compound 10 µM.
The mark [19] stands for this setting: second compound 0.316 µM, first compound 0.0316 µM.
[20] abbreviates: second compound 0.316 µM, first compound 0.1 µM.
Setting [21] is: second compound 0.316 µM, first compound 0.316 µM.
[22] abbreviates: second compound 0.316 µM, first compound 1 µM.
The mark [23] stands for this setting: second compound 0.316 µM, first compound 3.16 µM.
[24] abbreviates: second compound 0.316 µM, first compound 10 µM.
Where [25] appears, read: second compound 1 µM, first compound 0.0316 µM.
Setting [26] is: second compound 1 µM, first compound 0.1 µM.
Where [27] appears, read: second compound 1 µM, first compound 0.316 µM.
[28] abbreviates: second compound 1 µM, first compound 1 µM.
Where [29] appears, read: second compound 1 µM, first compound 3.16 µM.
Setting [30] is: second compound 1 µM, first compound 10 µM.
[31] abbreviates: second compound 3.16 µM, first compound 0.0316 µM.
[32] abbreviates: second compound 3.16 µM, first compound 0.1 µM.
The mark [33] stands for this setting: second compound 3.16 µM, first compound 0.316 µM.
[34] abbreviates: second compound 3.16 µM, first compound 1 µM.
Where [35] appears, read: second compound 3.16 µM, first compound 3.16 µM.
Where [36] appears, read: second compound 3.16 µM, first compound 10 µM.
The mark [37] stands for this setting: second compound 10 µM, first compound 0.0316 µM.
[38] abbreviates: second compound 10 µM, first compound 0.1 µM.
[39] abbreviates: second compound 10 µM, first compound 0.316 µM.
The mark [40] stands for this setting: second compound 10 µM, first compound 1 µM.
The mark [41] stands for this setting: second compound 10 µM, first compound 3.16 µM.
The mark [42] stands for this setting: second compound 10 µM, first compound 10 µM.

Molecules are shown by their SMILES. Values joined by “and” are separate entries in the source; they are usually repeats but may differ in a detail not shown here. Identical values can stand only once.
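Further: spheroids exposed to drugs for seven days.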
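Wherever viability, T/C is given: 100% = DMSO vehicle control viability.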

For `C=CC(=O)N1CCN(c2nc(=O)n(-c3c(C)ccnc3C(C)C)c3nc(-c4c(O)cccc4F)c(F)cc23)C(C)C1` (stereo not drawn) + CN(C)c1ccc(Nc2c3ccc(NC(=O)CCN4CCCC4)cc3nc3cc(NC(=O)CCN4CCCC4)ccc23)cc1, the IC50 is over 10 µM under setting [1]; over 10 µM under setting [2]; over 10 µM under setting [3]; over 10 µM under setting [4]; under 0.0316 µM under setting [5]; over 10 µM under setting [6]. The viability, T/C is, setting by setting: under setting [7], 93.1%; under setting [8], 90.4%; under setting [9], 106%; under setting [10], 97.6%; under setting [11], 102%; under setting [12], 87.6%. Also, the viability, T/C by setting is: under setting [13], 90%; under setting [14], 75.8%; under setting [15], 80.6%; under setting [16], 73.9%; under setting [17], 77%; under setting [18], 75.2%. For the same compound, the viability, T/C is 67.9% under setting [19]; 82.1% under setting [20]; 68.6% under setting [21]; 58.5% under setting [22]; 71% under setting [23]; 68.9% under setting [24]. Also, the viability, T/C reads like this: under setting [25], 55.4%; under setting [26], 47.8%; under setting [27], 62.2%; under setting [28], 56.6%; under setting [29], 59.1%; under setting [30], 63.6%. The viability, T/C under setting [31] was 48.2%; the viability, T/C under setting [32] was 52.1%; the viability, T/C under setting [33] is 42.3%; the viability, T/C under setting [34] was 44.6%; the viability, T/C under setting [35] is 55.8%; the viability, T/C under setting [36] is 45.3%. For the same compound, the viability, T/C under setting [37] was 50.6%; the viability, T/C under setting [38] is 55.1%; the viability, T/C under setting [39] is 43.5%; the viability, T/C under setting [40] was 53.5%; the viability, T/C under setting [41] was 62.6%; the viability, T/C under setting [42] is 47.8%.
As for `CC1COCCN1c1cc(C2(S(C)(=N)=O)CC2)nc(-c2ccnc3[nH]ccc23)n1` (stereo not drawn), the viability, T/C by setting is: (compound 0.0316 µM) 103% (2×) and 89.1%; (compound 0.1 µM) 92.5% and 89% and 63%; (compound 0.316 µM) 96.4% and 75.8% and 79.6%; (compound 1 µM) 93.7% and 76% and 77.1%; (compound 3.16 µM) 89.8% and 75.2% and 74.9%; (compound 10 µM) 68.3% and 69.6% and 60.1%. Further, the concentration for half-maximal inhibition (IC50) (curve of compound) was over 10 µM.
Regarding `CC(C)n1c(=O)n(C)c2cnc3cc(F)c(-c4ccc(OCCCN5CCCCC5)nc4)cc3c21`, the viability, T/C was 91.9% and 80.4% and 93.2% (compound 0.0316 µM); 86.8% and 101% and 78.8% (compound 0.1 µM); 107% and 86.6% and 73.3% (compound 0.316 µM); 99.4% and 85.9% and 73.2% (compound 1 µM); 108% and 84.9% and 95.3% (compound 3.16 µM); 86.9% and 68.8% and 77% (compound 10 µM). The IC50 (curve of compound) is over 10 µM.
In the case of `COc1ccc([C@@H](O)c2cc(-c3ncnc4cc(N5CCOCC5)ccc34)c(F)cc2Cl)nn1` + Cc1cnc(CNC(=O)c2c(=O)c3ccc(N4CCCN(C)CC4)nc3n3c2sc2ccccc23)cn1, the IC50 by setting is: under setting [1], 8.71 µM; under setting [2], over 10 µM; under setting [3], 4.4 µM; under setting [4], 2.53 µM; under setting [5], 1.77 µM; under setting [6], 0.709 µM. The viability, T/C under setting [7] is 75.2%; the viability, T/C under setting [8] was 81.5%; the viability, T/C under setting [9] is 79.3%; the viability, T/C under setting [10] was 68.8%; the viability, T/C under setting [11] was 60.6%; the viability, T/C under setting [12] is 48.4%. Besides, the viability, T/C by setting is: under setting [13], 78.7%; under setting [14], 73.9%; under setting [15], 70.2%; under setting [16], 73.8%; under setting [17], 69.6%; under setting [18], 55.1%. In addition, the viability, T/C runs as follows: under setting [19], 74.4%; under setting [20], 87.7%; under setting [21], 83.9%; under setting [22], 71%; under setting [23], 55.1%; under setting [24], 39.3%. Besides, the viability, T/C was 73.6% under setting [25]; 77.9% under setting [26]; 75.2% under setting [27]; 63% under setting [28]; 47.4% under setting [29]; 33.7% under setting [30]. Besides, the viability, T/C reads like this: under setting [31], 69.2%; under setting [32], 69.3%; under setting [33], 70%; under setting [34], 56.2%; under setting [35], 43.1%; under setting [36], 34%. In addition, the viability, T/C was 65% under setting [37]; 58.1% under setting [38]; 70% under setting [39]; 43.9% under setting [40]; 43.2% under setting [41]; 30.9% under setting [42].
Consider `COc1ccc([C@@H](O)c2cc(-c3ncnc4cc(N5CCOCC5)ccc34)c(F)cc2Cl)nn1`, for which the viability, T/C is, setting by setting: (compound 0.0316 µM) 91.6% and 98.8% and 86%; (compound 0.1 µM) 81% and 98.4% and 55%; (compound 0.316 µM) 95.6% and 97.8% and 80.1%; (compound 1 µM) 75.1% and 80.2% and 68.1%; (compound 3.16 µM) 75.5% and 68% and 68.3%; (compound 10 µM) 61.6% and 65.6% and 59.3%. For the same compound, the IC50 (curve of compound) was over 10 µM.
Take `CC(C)(O)C1CCC(Nc2ccc3ncc(-c4cccc(C(F)(F)F)c4)n3n2)CC1` (stereo not drawn): the viability, T/C runs as follows: (compound 0.0316 µM) 82.3% and 80.4% and 95.8%; (compound 0.1 µM) 73.1% and 79.5% and 84.1%; (compound 0.316 µM) 72.7% and 86.8% and 87.8%; (compound 1 µM) 62.9% and 60.6% and 73.3%; (compound 3.16 µM) 43.8% and 49.5% and 61%; (compound 10 µM) 45.6% and 63.7% and 54.7%. For the same compound, the IC50 (curve of compound) is 2.38 µM and > 10 µM.
Consider `CCc1c2c(nc3ccc(O)cc13)-c1cc3c(c(=O)n1C2)COC(=O)[C@]3(O)CC`, for which the viability, T/C is 98.6% and 89.7% and 104% (compound 0.000999 µM); 93.7% and 94.5% and 92.8% (compound 0.00316 µM); 120% and 88.8% and 82.7% (compound 0.00999 µM); 89.3% and 117% and 90.7% (compound 0.0316 µM); 98.1% and 103% and 110% (compound 0.0999 µM); 92.2% and 108% and 95.1% (compound 0.316 µM). The IC50 (curve of compound) is over 0.316 µM.
Regarding `O=c1[nH]cc(F)c(=O)[nH]1`, the viability, T/C (compound 0.0316 µM) was 98.2% and 108% and 102%; the viability, T/C (compound 0.1 µM) is 71.6% and 81.3% and 94.7%; the viability, T/C (compound 0.316 µM) was 89.2% and 90.9% and 103%; the viability, T/C (compound 1 µM) was 88.4% and 88.3% and 106%; the viability, T/C (compound 3.16 µM) was 84.1% and 90.3% and 83.7%; the viability, T/C (compound 10 µM) is 101% and 97.9% and 113%. For the same compound, the IC50 (curve of compound) was over 10 µM.
On to `O=C(c1cc(Cc2n[nH]c(=O)c3ccccc23)ccc1F)N1CCN(C(=O)C2CC2)CC1`, for which the viability, T/C was 98.7% and 82% and 96.7% (compound 0.0316 µM); 74.7% and 85.1% and 87.7% (compound 0.1 µM); 99.8% and 90.6% and 79% (compound 0.316 µM); 93.7% and 103% and 84.8% (compound 1 µM); 82.7% and 91.9% and 88% (compound 3.16 µM); 94.1% and 79.9% and 97.9% (compound 10 µM). For the same compound, under “curve of compound”, the IC50 was over 10 µM.

For the origin of these results see PubChem BioAssay AID2060496 (Molecular Pharmacology Branch, DTP, NCI, 2025).
